According to US10251915B2, “Co-encapsulation of live cells with oxygen-generating particles” (Wake Forest University Health Sciences, priority 2011, dated 2019):
“Also recorded” adds a separate entry of the source.

Assays:
Isolated human islets = assay: MTS viability assay of islets co-cultured with MPO and antioxidants; type: cell-based
Description: FIG. 4: Viability of islets co-cultured with MPO and antioxidants. Isolated human islets were co-cultured with 10 mM MPO for 2 days in normal culture conditions with the following antioxidants: 100 Units/mL Catalase, 1.5 mM Trolox and 30 μM MnTE-2-Pyp. After the two day culture period islet viabilty was determined with an MTS assay. Error bars represent standard deviation, n=5.
Previous studies have shown that the isolation process predisposes islets to subsequent damage and functional impairment and that an SOD mimicking catalytic antioxidant, MnTE-2-PyP (also called AEOL10113), developed by Drs.

[1] = tested on: islet cell functional mass; conditions: used in the isolation or culture medium; cited from earlier work
[2] = Oxygen release (dissolved oxygen) from POGS encapsulated in alginate microbeads in a hypoxic chamber; type: physicochemical; conditions: for duration of oxygen release from alginate microbeads containing MgO2 in the presence of antioxidant: 2.5% MPO in alginate microcapsules, 100 U/ml catalase, 1.5 mM Trolox, compared to MPO alone
Text: FIG. 1: Comparison of CaO2 and MgO2 release over six days, dissolved oxygen readings are an average of 5 sample groups with 1500 microcapsules each; measurements were taken in a hypoxic chamber.
FIG. 2: Effect of antioxidants on oxygen release from alginate microcapsules with 2.5% MPO.
Comparison of CPO and MPO: We first examined the oxygen release profiles of two POGS, CPO and MPO encapsulated in alginate microbeads in the absence or presence of catalase (100 U/ml), and the antioxidant, Trolox (1.5 mM). Sieves were used to select both MPO and CPO particles equal to and less than 25 μm in diameter. Then 0.5% by weight solution of 1.5% LVM and either CPO or MPO were prepared respectively. These solutions were then extruded through an encapsulating device forming microspheres measuring […] in diameter, which were allowed to crosslink for 15 minutes in 1.1% CaCl2 solution. After cross-linking, the microbeads were rinsed with HBSS and placed into 50 ml conical tubes (BD, USA) containing 20 mL ultra pure water with 10 mM HEPES (pH=7.4). Tubes were placed in a 1% oxygen environment in a hypoxic glovebox system (Biospherix, USA) with the caps of the tubes removed allowing for gas exchange. Dissolved oxygen readings were taken every 24 hours for 6 days using an Orion 4-star DO Probe (Thermo Science).
Oxygen release from MPO Alginate Capsules: On the basis of a better release profile, we then selected MgO2 for further studies. First the release profiles of various concentrations of MPO were measured. Using the same technique as described above 0%, 0.25%, 0.5%, 1%, 1.5%, 2.0%, 2.5%, 5%, 10%, 20%, 30%, and 40% (by weight) solutions of MPO in 1.5% UP LVM were prepared, with particles larger than 25 μM sieved out of the solution prior to encapsulation. […] Dissolved oxygen levels were measured for up to 250 hours. Using the same methodology we then assessed the effect of the antioxidants, Catalase and Trolox, on oxygen release. […] Capsules were prepared and dissolved oxygen levels were measured as described earlier. […] Dissolved oxygen levels were measured for up to 250 hours.

CC[n+]1ccccc1-c1c2nc(c(-c3cccc[n+]3CC)c3ccc([n-]3)c(-c3cccc[n+]3CC)c3nc(c(-c4cccc[n+]4CC)c4ccc1[n-]4)C=C3)C=C2.[Mn+3] [MnTE-2-PyP, Mn (III) tetrakis (N-ethylpyridinium-2-yl) porphyrin]
effect on viability of islets co-cultured with MPO (Isolated human islets; 10 mM MPO, 30 μM MnTE-2-Pyp, 2 days normal culture): counteracts the diminishing effect of MPO on islet viability
viability of isolated human islets (Isolated human islets; added to islets in normal culture, 30 μM MnTE-2-Pyp, 2 days, n=5): significantly (p<0.05) enhances the viability
preservation of islet cell functional mass [1]: beneficial in preserving islet cell functional mass

Cc1c(C)c2c(c(C)c1O)CCC(C)(C(=O)O)O2 (stereo not shown) [Trolox, 6-hydroxy-2,5,7,8-tetramethylchroman-2-carboxylic acid]
duration of oxygen release from alginate microbeads containing MgO2 in the presence of antioxidant [2]: this effect is not observed; also recorded: no significant change

[Mg+2].[O-][O-] [MPO, Magnesium Peroxide]
effect of MPO on islet viability (Isolated human islets; 10 mM MPO, 2 days normal culture): diminishing effect
release of oxygen ([2]; 0.5% by weight CPO or MPO in 1.5% LVM alginate microbeads, 1% oxygen environment, readings every 24 hours for 6 days): higher release of oxygen for up to five days compared to CPO

B1: catalase: Catalase (from bovine liver), peroxide decomposition catalyst (protein, UniProt P00432 2-527, looked up)
Catalase: ADNRDPASDQMKHWKEQRAAQKPDVLTTGGGNPVGDKLNSLTVGPRGPLLVQDVVFTDEMAHFDRERIPERVVHAKGAGAFGYFEVTHDITRYSKAKVFEHIGKRTPIAVRFSTVAGESGSADTVRDPRGFAVKFYTEDGNWDLVGNNTPIFFIRDALLFPSFIHSQKRNPQTHLKDPDMVWDFWSLRPESLHQVSFLFSDRGIPDGHRHMNGYGSHTFKLVNANGEAVYCKFHYKTDQGIKNLSVEDAARLAHEDPDYGLRDLFNAIATGNYPSWTLYIQVMTFSEAEIFPFNPFDLTKVWPHGDYPLIPVGKLVLNRNPVNYFAEVEQLAFDPSNMPPGIEPSPDKMLQGRLFAYPDTHRHRLGPNYLQIPVNCPYRARVANYQRDGPMCMMDNQGGAPNYYPNSFSAPEHQPSALEHRTHFSGDVQRFNSANDDNVTQVRTFYLKVLNEEQRKRLCENIAGHLKDAQLFIQKKAVKNFSDVHPEYGSRIQALLDKYNEEKPKNAVHTYVQHGSHLSAREKANL
duration of oxygen release from alginate microbeads containing MgO2 in the presence of antioxidant [2]: significantly shortened
